# Reference: patent US20240293413A1, “COMPOUND AND METHOD FOR TREATING CHEMOTHERAPY-RELATED GASTROINTESTINAL SIDE EFFECTS” (ONQUALITY PHARMACEUTICALS CHINA LTD., priority 2021, published 2024)
# Key:
# Format in all cases: in vivo
# [1] = test system: diarrhea caused by a chemotherapeutic agent in Balb/c mice; test: Examples 230-271 (Table 4): oral CDK inhibitor, relief of diarrhea caused by a chemotherapeutic agent; conditions: CDK inhibitor oral 150 mg/kg single, cycle 7 days
# Excerpt: Balb/c mice were fed for 1 week, and then divided into groups. The experiment was divided into a control group, a chemotherapeutic agent group, and a CDK inhibitor group, each of which comprised 10 mice, to perform the administration experiment, for which the administration dosage, mode, time and frequency were shown in Table 4. The control group: being intragastrically administered with the same solvent as that used in the CDK inhibitor group (the time was shown in Table 4), and then being injected/intragastrically administered with the same solvent as that used in the chemotherapeutic agent group (the administration mode was shown in Table 4): the chemotherapeutic agent group: being intragastrically administered with the same solvent as that used in the CDK inhibitor group (the time was shown in Table 4), and then being injected/intragastrically administered with the chemotherapeutic agent (the type, administration mode and dosage were shown in Table 4): the CDK inhibitor group: being intragastrically administered with the CDK inhibitor (the time was shown in Table 4), and then being administered with the chemotherapeutic agent (the mode and dosage were shown in Table 4).
# The diarrhea grading of mice was observed and recorded every day.
# [2] = test system: Chemotherapeutic agent-caused diarrhea models of Balb/c mice; test: Examples 1-229 (Table 3): oral CDK inhibitor, relief of diarrhea caused by a chemotherapeutic agent;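 also: percent of treated mice whose diarrhea grade fell below chemotherapy-group average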
# [3] = test system: diarrhea caused by a chemotherapeutic agent in Balb/c mice; test: Examples 343-381 (Table 6): oral versus intravenous CDK inhibitor, relief of diarrhea caused by a chemotherapeutic agent;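 also: percent of treated mice whose diarrhea grade fell below chemotherapy-group average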
# In short: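 Balb/c mice (10 per group) received the CDK inhibitor orally or by tail-vein injection, or vehicle, followed by a chemotherapeutic agent or its solvent. Diarrhea grade was scored daily.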
compound,measurement,setting,value
CCN1CCN(Cc2ccc(Nc3ncc(F)c(-c4cc(F)c5nc(C)n(C(C)C)c5c4)n3)nc2)CC1 [Abemaciclib],Relative remission rate,"[1]; Example 253, Methotrexate (MTX) intramuscular injection 300 mg/kg single, 8 h before",70%
same,Relative remission rate,"[1]; Example 263, Vinorelbine (NVB) intravenous injection 10 mg/kg single, 0.5 h before",60%
same,Relative remission rate,"[1]; Example 264, Vinorelbine (NVB) intravenous injection 10 mg/kg single, 4 h before",80%
same,Relative remission rate,"[1]; Example 265, Vinorelbine (NVB) intravenous injection 10 mg/kg single, 8 h before",80%
same,Relative remission rate,"[1]; Example 266, Vinorelbine (NVB) intravenous injection 10 mg/kg single, 12 h before",60%
same,Relative remission rate,"[1]; Example 267, Vinorelbine (NVB) intravenous injection 10 mg/kg single, 24 h before",50%
same,Relative remission rate,"[1]; Example 268, Vinorelbine (NVB) intravenous injection 10 mg/kg single, 48 h before",0%
same,Relative remission rate (%),"[2]; Example 48, Fluorouracil (5-Fu) intramuscular injection 125 mg/kg single, CDK inhibitor oral 150 mg/kg single 8 h before, cycle 10 days",40%
same,Relative remission rate (%),"[2]; Example 89, Irinotecan (CPT-11) intraperitoneal injection 240 mg/kg single, CDK inhibitor oral 150 mg/kg single 0.5 h before, cycle 7 days",30%
same,Relative remission rate (%),"[2]; Example 90, Irinotecan (CPT-11) intraperitoneal injection 240 mg/kg single, CDK inhibitor oral 150 mg/kg single 1 h before, cycle 7 days",30%
same,Relative remission rate (%),"[2]; Example 91, Irinotecan (CPT-11) intraperitoneal injection 240 mg/kg single, CDK inhibitor oral 150 mg/kg single 2 h before, cycle 7 days",40%
same,Relative remission rate (%),"[2]; Example 92, Irinotecan (CPT-11) intraperitoneal injection 240 mg/kg single, CDK inhibitor oral 150 mg/kg single 3 h before, cycle 7 days",30%
same,Relative remission rate (%),"[2]; Example 93, Irinotecan (CPT-11) intraperitoneal injection 240 mg/kg single, CDK inhibitor oral 150 mg/kg single 4 h before, cycle 7 days",50%
same,Relative remission rate (%),"[2]; Example 94, Irinotecan (CPT-11) intraperitoneal injection 240 mg/kg single, CDK inhibitor oral 150 mg/kg single 5 h before, cycle 7 days",60%
same,Relative remission rate (%),"[2]; Example 95, Irinotecan (CPT-11) intraperitoneal injection 240 mg/kg single, CDK inhibitor oral 150 mg/kg single 6 h before, cycle 7 days",60%
same,Relative remission rate (%),"[2]; Example 96, Irinotecan (CPT-11) intraperitoneal injection 240 mg/kg single, CDK inhibitor oral 150 mg/kg single 7 h before, cycle 7 days",60%
same,Relative remission rate (%),"[2]; Example 97, Irinotecan (CPT-11) intraperitoneal injection 240 mg/kg single, CDK inhibitor oral 150 mg/kg single 8 h before, cycle 7 days",70%
same,Relative remission rate (%),"[2]; Example 98, Irinotecan (CPT-11) intraperitoneal injection 240 mg/kg single, CDK inhibitor oral 150 mg/kg single 9 h before, cycle 7 days",50%
same,Relative remission rate (%),"[2]; Example 99, Irinotecan (CPT-11) intraperitoneal injection 240 mg/kg single, CDK inhibitor oral 12.5 mg/kg single 10 h before, cycle 7 days",20%
same,Relative remission rate (%),"[2]; Example 100, Irinotecan (CPT-11) intraperitoneal injection 240 mg/kg single, CDK inhibitor oral 25 mg/kg single 10 h before, cycle 7 days",40%
same,Relative remission rate (%),"[2]; Example 101, Irinotecan (CPT-11) intraperitoneal injection 240 mg/kg single, CDK inhibitor oral 50 mg/kg single 10 h before, cycle 7 days",80%
same,Relative remission rate (%),"[2]; Example 102, Irinotecan (CPT-11) intraperitoneal injection 240 mg/kg single, CDK inhibitor oral 100 mg/kg single 10 h before, cycle 7 days",50%
same,Relative remission rate (%),"[2]; Example 103, Irinotecan (CPT-11) intraperitoneal injection 240 mg/kg single, CDK inhibitor oral 150 mg/kg single 10 h before, cycle 7 days",70%
same,Relative remission rate (%),"[2]; Example 104, Irinotecan (CPT-11) intraperitoneal injection 240 mg/kg single, CDK inhibitor oral 100 mg/kg single 11 h before, cycle 7 days",80%
same,Relative remission rate (%),"[2]; Example 105, Irinotecan (CPT-11) intraperitoneal injection 240 mg/kg single, CDK inhibitor oral 100 mg/kg single 12 h before, cycle 7 days",80%
same,Relative remission rate (%),"[2]; Example 106, Irinotecan (CPT-11) intraperitoneal injection 240 mg/kg single, CDK inhibitor oral 100 mg/kg single 14 h before, cycle 7 days",90%
same,Relative remission rate (%),"[2]; Example 107, Irinotecan (CPT-11) intraperitoneal injection 240 mg/kg single, CDK inhibitor oral 100 mg/kg single 16 h before, cycle 7 days",70%
same,Relative remission rate (%),"[2]; Example 108, Irinotecan (CPT-11) intraperitoneal injection 240 mg/kg single, CDK inhibitor oral 100 mg/kg single 18 h before, cycle 7 days",70%
same,Relative remission rate (%),"[2]; Example 109, Irinotecan (CPT-11) intraperitoneal injection 240 mg/kg single, CDK inhibitor oral 100 mg/kg single 20 h before, cycle 7 days",40%
same,Relative remission rate (%),"[2]; Example 110, Irinotecan (CPT-11) intraperitoneal injection 240 mg/kg single, CDK inhibitor oral 100 mg/kg single 22 h before, cycle 7 days",40%
same,Relative remission rate (%),"[2]; Example 111, Irinotecan (CPT-11) intraperitoneal injection 240 mg/kg single, CDK inhibitor oral 100 mg/kg single 24 h before, cycle 7 days",40%
same,Relative remission rate (%),"[2]; Example 112, Irinotecan (CPT-11) intraperitoneal injection 240 mg/kg single, CDK inhibitor oral 100 mg/kg single 48 h before, cycle 7 days",0%
same,Relative remission rate (%),"[2]; Example 226, Topotecan intraperitoneal injection 10 mg/kg single, CDK inhibitor oral 150 mg/kg single, 6 h before, 14 days",40%
same,Relative remission rate,"[3]; Example 364, Carboplatin (CBP) intramuscular injection 150 mg/kg single, CDK inhibitor intravenous injection 150 mg/kg single, 8 h before, cycle 10 days",20%
same,Relative remission rate,"[3]; Example 364, Carboplatin (CBP) intramuscular injection 150 mg/kg single, CDK inhibitor oral 150 mg/kg single, 8 h before, cycle 10 days",50%
same,Relative remission rate,"[3]; Example 371, Gemcitabine (GEM) intraperitoneal injection 120 mg/kg single, CDK inhibitor intravenous injection 150 mg/kg single, 0.5 h before, cycle 8 days",10%
same,Relative remission rate,"[3]; Example 371, Gemcitabine (GEM) intraperitoneal injection 120 mg/kg single, CDK inhibitor oral 150 mg/kg single, 0.5 h before, cycle 8 days",30%
same,Relative remission rate,"[3]; Example 372, Gemcitabine (GEM) intraperitoneal injection 120 mg/kg single, CDK inhibitor intravenous injection 150 mg/kg single, 4 h before, cycle 8 days",10%
same,Relative remission rate,"[3]; Example 372, Gemcitabine (GEM) intraperitoneal injection 120 mg/kg single, CDK inhibitor oral 150 mg/kg single, 4 h before, cycle 8 days",30%
same,Relative remission rate,"[3]; Example 373, Gemcitabine (GEM) intraperitoneal injection 120 mg/kg single, CDK inhibitor intravenous injection 150 mg/kg single, 8 h before, cycle 8 days",20%
same,Relative remission rate,"[3]; Example 373, Gemcitabine (GEM) intraperitoneal injection 120 mg/kg single, CDK inhibitor oral 150 mg/kg single, 8 h before, cycle 8 days",50%
same,Relative remission rate,"[3]; Example 374, Gemcitabine (GEM) intraperitoneal injection 120 mg/kg single, CDK inhibitor intravenous injection 150 mg/kg single, 12 h before, cycle 8 days",20%
same,Relative remission rate,"[3]; Example 374, Gemcitabine (GEM) intraperitoneal injection 120 mg/kg single, CDK inhibitor oral 150 mg/kg single, 12 h before, cycle 8 days",50%
same,Relative remission rate,"[3]; Example 375, Gemcitabine (GEM) intraperitoneal injection 120 mg/kg single, CDK inhibitor intravenous injection 150 mg/kg single, 24 h before, cycle 8 days",10%
same,Relative remission rate,"[3]; Example 375, Gemcitabine (GEM) intraperitoneal injection 120 mg/kg single, CDK inhibitor oral 150 mg/kg single, 24 h before, cycle 8 days",40%
